Measured values: paper PMC8811960, “A Novel 2-Carbon-Linked Dimeric Artemisinin With Potent Antileukemic Activity and Favorable Pharmacology” (Frontiers in Oncology, 2022)

Key:
HEL = test: alamarBlue growth inhibition, HEL; format: cell-based; settings: Homo sapiens, 48h, mean of 2 independent assays ± SD
Experimental: (§1) Cytotoxicity was assessed using alamarBlue assays (Life Technologies, Grand Island, NY) following manufacturer’s guidelines. Cell death was verified by Annexin V/7-aminoactinomycin D (7AAD) staining (BioLegend, San Diego, CA) per manufacturer’s guidelines.

MOLM14 cells = test: Total cellular ROS (CM-H2DCFDA flow cytometry); format: cell-based, human; settings: MOLM14, 200 nM, 18h
Experimental: […] Cells were then treated with ART631 (200 nM) or DMSO control for 18h, with subsequent analysis by flow cytometry. Western blotting and quantitative reverse transcription PCR (qRT-PCR) to assess for molecular markers of ROS-mediated apoptosis were performed as previously described ([20]).
Figure 4 ART631 elevated ROS and CHOP levels and reduced MCL1 expression in MOLM14 AML cells. […] They were then analyzed by flow cytometry. Graph represents %CM-H2DCFDA fluorescence compared to vehicle (DMSO) control treated cells. Error bars represent SD from 3 independent experiments. (B) MOLM14 AML cells were treated for 18h with vehicle, AS (10 uM), ART838 (200 nM), ART631 (200 nM), cytarabine (AraC; 150 nM), or SOR (5 uM). Protein was isolated and western blotted for MCL1, BCL2, CHOP, and β-actin. (C) MOLM14 cells were treated as in (B) for 18h, total RNA isolated, cDNA synthesized, and SYBR Green qRT-PCR performed in triplicates. Ct values were normalized to housekeeping gene GAPDH and fold change shown relative to vehicle (DMSO) control. Error bars represent SD from 3 independent experiments done in triplicate.

MV4;11 = test: alamarBlue growth inhibition, MV4;11; format: cell-based; settings: Homo sapiens, MV4;11, 48h, mean of 2 independent assays ± SD
Experimental: as §1

[1] = Maximum tolerated dose in NRG mice; format: in vivo
Experimental: Mice were dosed orally with ART631 at empirically determined maximally tolerated doses (MTDs) of 75 mg/kg ART631 as a single dose alone or 15 mg/kg as a multiple dose regimen (once daily x5), either alone or in combination with SOR (30 mg/kg/d) and VEN (150 mg/kg/d), for side-by-side comparison to the ART838, SOR and VEN combination evaluated previously ([20]). ART631, SOR, and VEN were mixed in vehicle and given as a single administration. Mice (n = 3/time point) were euthanized at 0.5, 1, 1.5, 2, 3, 4, 6, 8 and 12 h after dosing. ART631 was quantified in plasma as described below. Pharmacokinetic parameters were calculated from mean concentration-time data using non-compartmental methods in Phoenix WinNonlin version 8.3 (Certara, Princeton, NJ). The maximum plasma concentration (Cmax) and time to Cmax (Tmax) were the observed values. The AUClast was calculated using the log-linear trapezoidal method. AUC was extrapolated to infinity (AUCINF) by dividing the last quantifiable concentration by the terminal disposition rate constant (λz). The λz was determined from at least 3 points on the slope of the terminal phase of the concentration-time profile. The terminal half-life (T1/2) was determined by dividing 0.693 by λz. Apparent clearance (Cl/F) was calculated by dividing the dose administered by AUCINF. Apparent volume of distribution (V/F) was calculated by dividing Cl/F by λz. If the percent AUC extrapolated was >20% or the r^2 of λz was <0.85, the AUCINF, Cl/F, T1/2 and V/F were not reported.
In pilot experiments, the MTD of ART631 was determined, in NRG (host strain for our AML xenograft models) mice, to be 75 mg/kg PO (gavage) for a single dose, or 15 mg/kg/d PO x5d every 14 days. When ART631 was combined with 150 mg/kg/d VEN and/or 30 mg/kg/d SOR, as was done previously with ART838 ([20]), ART631 was tolerated at the multiple dose MTD, and no further dose adjustments were made. The PK of ART631 was assessed at the MTD.

DDIT3 = test: qRT-PCR for DDIT3 mRNA; format: cell-based, human; settings: MOLM14, 18h, ART631 200 nM, ART838 200 nM, AS 10 uM, similar results in MV4;11 and ML2
Experimental: Cells were pre-treated with […] ROS detection reagent 5-(and 6-)-chloromethyl-2’,7’-dichlorodihydrofluorescein diacetate (CM-H2DCFDA, Life Technologies) for 30 min, followed by the iron chelator deferoxamine mesylate (DFO; 11 mM) for 60 min. Cells were then treated with ART631 (200 nM) or DMSO control for 18h, with subsequent analysis by flow cytometry. Western blotting and quantitative reverse transcription PCR (qRT-PCR) to assess for molecular markers of ROS-mediated apoptosis were performed as previously described ([20]).
Figure 4 ART631 elevated ROS and CHOP levels and reduced MCL1 expression in MOLM14 AML cells. (A) MOLM14 AML cells were pre-treated with ROS detection reagent CM-H2DCFDA ([…]) for 30 min, pre-treated with deferoxamine mesylate (DFO; 11 mM) for 60 min, and then treated with ART631 (200 nM) or DMSO control for 18h. They were then analyzed by flow cytometry. Graph represents %CM-H2DCFDA fluorescence compared to vehicle (DMSO) control treated cells. Error bars represent SD from 3 independent experiments. (B) MOLM14 AML cells were treated for 18h with vehicle, AS (10 uM), ART838 (200 nM), ART631 (200 nM), cytarabine (AraC; 150 nM), or SOR (5 uM). Protein was isolated and western blotted for MCL1, BCL2, CHOP, and β-actin. (C) MOLM14 cells were treated as in (B) for 18h, total RNA isolated, cDNA synthesized, and SYBR Green qRT-PCR performed in triplicates. Ct values were normalized to housekeeping gene GAPDH and fold change shown relative to vehicle (DMSO) control. Error bars represent SD from 3 independent experiments done in triplicate.

For `C=CCO/N=C(/C[C@H]1O[C@@H]2O[C@@]3(C)CC[C@H]4[C@H](C)CC[C@@H]([C@H]1C)[C@@]24OO3)[C@H]1O[C@@H]2O[C@@]3(C)CC[C@H]4[C@H](C)CC[C@@H]([C@H]1C)[C@@]24OO3` [ART631], the IC50 (HEL) was 45 ± 5 nM, the “total cellular ROS levels” value (MOLM14 cells) was “substantially increased” and the IC50 (MV4;11) was 27 ± 2 nM. The “tolerability when combined with VEN and/or SOR” value ([1]; ART631 at multiple dose MTD with 150 mg/kg/d VEN and/or 30 mg/kg/d SOR) was “tolerated”, the MTD ([1]; mouse, in vivo, NRG mice, PO (gavage), single dose) was 75 mg/kg and the MTD at 5 d ([1]; mouse, in vivo, NRG mice, PO x5d every 14 days, read-out: MTD, multiple dose) was 15 mg/kg/day. The “DDIT3 mRNA” value (DDIT3) was “increased”.
